From patent US8084502B2, “Use of agmatine for protection of retinal ganglion cells” (priority 2007, dated 2011) come the findings set out here.

Common to all, as to type: cell-based, rat
One assay concerns caspase-3. Description: Caspase-3 activity (colorimetric, Ac-DEVD-pNA cleavage) after hypoxia. To be noted: hypoxia 24 hours; 100 μM of agmatine or 50 μM of Z-VAD-FMK. Here is the method:
The RGC-5 cell line, which is a RGC line developed from post-natal Sprague-Dawley rats, was grown in modified Dulbecco's Modified Eagle's Medium (DMEM; Gibco) supplemented with 10% of heat inactivated fetal bovine serum (Gibco) and 100 U/mL of penicillin and 100 μg/mL of streptomycin (Gibco). The cells were passaged every 2 to 3 days, and the cultures incubated at 37° C. in 5% of CO2 and air. […] For all experiments, cells were used at an 80% confluence. Cultures were transferred into a closed hypoxic chamber (Form a Scientific Co.) in which oxygen level (5% of O2, 5% of CO2, 90% of N2) and temperature (37° C.) were controlled. After washing twice with deoxygenated serum-free DMEM, cells were maintained in the hypoxic chamber. Control cells were not exposed to hypoxia. Agmatine or BDNF were added to the culture medium at the start of injury as indicated. Caspase-3 activity was measured using the CaspACE™ colorimetric assay system (Promega, Cat no. G7220) according to the manufacturer's instructions. Briefly, cells were harvested and resuspended in cell lysis buffer (10^8 cells/mL). […] After incubating at 37° C. for 4 hours, absorbance was measured using a microplate reader at 405 nm. Absorbance of each sample was determined by subtraction of the mean absorbance of the blank from that of each sample.

Assay [1] deals with RGC-5. Kind of assay: Annexin-V assay (flow cytometry), TNF-α-induced apoptosis. To be noted: 50 ng/mL of TNF-α. The method, then:
(§1) The RGC-5 cell line, which is an RGC line developed from post-natal Sprague-Dawley rats, was grown in modified DMEM (Gibco) supplemented with 10% of heat inactivated fetal bovine serum (Gibco) and 100 U/mL of penicillin and 100 μg/mL of streptomycin (Gibco). The cells were passaged every 2 to 3 days and incubated at 37° C. in 5% of CO2 and air. At cultivation, the cells had the same morphology. For all experiments, cells were used at 80% of confluence.
(§2) After washing twice with PBS, cells were cultured in serum-free DMEM and treated with either 10 or 50 ng/mL of recombinant rat TNF-α (Chemicon) for up to 48 hours. The control cells were not exposed to TNF-α. 100 μM of agmatine was added to the culture medium at the start of injury as indicated.
The percentage of cells actively undergoing apoptosis was determined by flow cytometry using the Annexin V-FITC Apoptosis Detection Kit (BD Biosciences, Cat no. 556547) according to the manufacturer's instructions. Briefly, cells were harvested and resuspended in binding buffer (10^6 cells/mL). 10^5 cells were mixed with 5 μL of annexin V-FITC and 5 μL of PI. After incubating at room temperature for 15 minutes in the dark, analysis was performed by flow cytometry.

The subject of assay [2] is RGC-5. Kind of assay: Hoechst 33342 and PI staining after hypoxia. To be noted: hypoxia 48 hours; 100 μM of agmatine or 10 ng/mL of BDNF. Here is the method: The RGC-5 cell line, which is a RGC line developed from post-natal Sprague-Dawley rats, was grown in modified Dulbecco's Modified Eagle's Medium (DMEM; Gibco) supplemented with 10% of heat inactivated fetal bovine serum (Gibco) and 100 U/mL of penicillin and 100 μg/mL of streptomycin (Gibco). The cells were passaged every 2 to 3 days, and the cultures incubated at 37° C. in 5% of CO2 and air. […] For all experiments, cells were used at an 80% confluence. Cultures were transferred into a closed hypoxic chamber (Form a Scientific Co.) in which oxygen level (5% of O2, 5% of CO2, 90% of N2) and temperature (37° C.) were controlled. After washing twice with deoxygenated serum-free DMEM, cells were maintained in the hypoxic chamber. Control cells were not exposed to hypoxia. Agmatine or BDNF were added to the culture medium at the start of injury as indicated. Apoptotic or necrotic cell death was characterized by the use of Hoechst 33342 and PI double staining. Cells were stained with 10 μg/mL of Hoechst 33342 and 10 μg/mL of PI at 37° C. for 30 minutes. After washing twice with phosphate buffered saline (PBS), cells were imaged with a digital camera attached to a fluorescence microscope.

In assay [3] the test system is RGC-5. Kind of assay: LDH assay, TNF-α-induced cell death. To be noted: 100 μM of agmatine; for LDH release: 50 ng/mL of TNF-α. Here is the method: as §1, §2
Cell viability was quantified by measuring the amounts of LDH released from the injured cells after TNF-α administration. LDH release is expressed as a value relative to the value of 100, which is the maximum LDH release that occurs after freezing each culture at −70° C. overnight and then rapidly thawing, thus inducing nearly complete cell damage. All experiments were performed in at least quadruplicate, and repeated at least eight times using cell cultures derived from different platings.

For assay [4], the system named is RGC-5. Kind of assay: LDH assay, hypoxia-induced cell death. To be noted: for LDH release: relative to maximum LDH release = 100; for concentration at which cell death was reduced significantly (LDH assay): preliminary studies. The method, then:
The RGC-5 cell line, which is a RGC line developed from post-natal Sprague-Dawley rats, was grown in modified Dulbecco's Modified Eagle's Medium (DMEM; Gibco) supplemented with 10% of heat inactivated fetal bovine serum (Gibco) and 100 U/mL of penicillin and 100 μg/mL of streptomycin (Gibco). The cells were passaged every 2 to 3 days, and the cultures incubated at 37° C. in 5% of CO2 and air. […] For all experiments, cells were used at an 80% confluence.
Cultures were transferred into a closed hypoxic chamber (Form a Scientific Co.) in which oxygen level (5% of O2, 5% of CO2, 90% of N2) and temperature (37° C.) were controlled. After washing twice with deoxygenated serum-free DMEM, cells were maintained in the hypoxic chamber. Control cells were not exposed to hypoxia. Agmatine or BDNF were added to the culture medium at the start of injury as indicated.
Cell viability was quantified by measurement of LDH released by injured cells after hypoxic or normoxic culture for 12, 24, and 48 hours. LDH release is expressed as a value relative to the value of 100, which represents the maximum LDH release that occurred after freezing of each culture at −70° C. overnight and rapid thawing, which induces nearly complete cell damage. All experiments were performed in at least quadruplicate and repeated at least eight times using cell cultures derived from different platings. The preliminary studies with the LDH assay tested agmatine concentrations from 10 μM to 1 mM and BDNF concentrations from 5 ng/mL to 100 ng/mL.

Some results are limits rather than exact numbers.

For the compound `N=C(N)NCCCCN` [agmatine], the “hypoxia-induced caspase-3 activity” value in the assay on caspase-3 is recorded as “equally suppressed”. The “proportion of apoptotic cells” value is given as “no significant difference” in the assay with RGC-5 [1] (12 hour exposure, agmatine 100 μM) and “significant decrease in apoptotic cells” in the assay on RGC-5 [1] (24 hours of exposure, 100 μM of agmatine). Also, the “RGC loss (Hoechst-positive / PI-positive cells)” value with RGC-5 [2] is given as “RGC loss was prevented”. Also, the LDH release with RGC-5 [3] (24 hours) was 5.91±0.86%; with RGC-5 [3] (48 hours), 8.14±2.43%; in the assay with RGC-5 [4] (hypoxia 48 hours, 100 μM of agmatine) it was 25.60%; with RGC-5 [4] (hypoxia 48 hours, 500 μM of agmatine), 27.09%. In addition, the “TNF-α-induced LDH release” value in the assay on RGC-5 [3] (all P<0.001) is on record as “significantly inhibited”. For the same compound, the “suppression of LDH release compared with BDNF” value with RGC-5 [4] (hypoxia 48 hours, 100 μM of agmatine vs 10 ng/mL BDNF, P<0.001) is recorded as “more effective in suppressing LDH release than 10 ng/mL BDNF”. For the same compound, the “concentration at which cell death was reduced significantly (LDH assay)” value with RGC-5 [4] (tested 10 μM to 1 mM) was not below 100 µM.
Turning to “BDNF: recombinant human BDNF (R&D System), well-known protective neurotrophin for RGCs, used as comparator”, in the assay on RGC-5 [2], the “RGC loss (Hoechst-positive / PI-positive cells)” value was “RGC loss was prevented”. In addition, the LDH release is 30.10% with RGC-5 [4] (hypoxia 48 hours, 10 ng/mL of BDNF); 33.67% in the assay on RGC-5 [4] (hypoxia 48 hours, 50 ng/mL of BDNF); 36.06% in the assay with RGC-5 [4] (hypoxia 48 hours, 100 ng/mL of BDNF). Moreover, the “concentration at which cell death was reduced significantly (LDH assay)” value in the assay with RGC-5 [4] (tested 5 ng/mL to 100 ng/mL) was not below 10 ng/mL.
